Paper PMC8251711 (Angewandte Chemie (International Ed. in English), 2021)

Target: LAT1 (Homo sapiens, UniProt Q01650)
Assay: [3H]-gabapentin uptake competition assay in LN229 cells
Type: cell-based
Conditions: read-out: IC50, [3H]-gabapentin uptake competition

Sequence of LAT1 (Q01650 whole entry): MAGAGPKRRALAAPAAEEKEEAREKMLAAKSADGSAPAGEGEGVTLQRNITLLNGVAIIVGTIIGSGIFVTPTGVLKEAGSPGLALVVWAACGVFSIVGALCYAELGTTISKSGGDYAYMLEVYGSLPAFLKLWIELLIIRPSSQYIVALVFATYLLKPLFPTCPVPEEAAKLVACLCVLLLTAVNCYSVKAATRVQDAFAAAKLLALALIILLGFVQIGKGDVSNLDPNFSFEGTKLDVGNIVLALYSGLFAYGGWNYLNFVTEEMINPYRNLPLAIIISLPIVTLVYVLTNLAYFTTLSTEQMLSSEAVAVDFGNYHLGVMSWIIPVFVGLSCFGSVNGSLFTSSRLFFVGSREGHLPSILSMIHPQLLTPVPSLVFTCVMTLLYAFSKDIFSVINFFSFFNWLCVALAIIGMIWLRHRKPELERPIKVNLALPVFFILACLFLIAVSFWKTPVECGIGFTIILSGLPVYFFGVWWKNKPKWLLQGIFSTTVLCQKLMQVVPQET
Sequence of LAT1 (P08195 102-630 partner): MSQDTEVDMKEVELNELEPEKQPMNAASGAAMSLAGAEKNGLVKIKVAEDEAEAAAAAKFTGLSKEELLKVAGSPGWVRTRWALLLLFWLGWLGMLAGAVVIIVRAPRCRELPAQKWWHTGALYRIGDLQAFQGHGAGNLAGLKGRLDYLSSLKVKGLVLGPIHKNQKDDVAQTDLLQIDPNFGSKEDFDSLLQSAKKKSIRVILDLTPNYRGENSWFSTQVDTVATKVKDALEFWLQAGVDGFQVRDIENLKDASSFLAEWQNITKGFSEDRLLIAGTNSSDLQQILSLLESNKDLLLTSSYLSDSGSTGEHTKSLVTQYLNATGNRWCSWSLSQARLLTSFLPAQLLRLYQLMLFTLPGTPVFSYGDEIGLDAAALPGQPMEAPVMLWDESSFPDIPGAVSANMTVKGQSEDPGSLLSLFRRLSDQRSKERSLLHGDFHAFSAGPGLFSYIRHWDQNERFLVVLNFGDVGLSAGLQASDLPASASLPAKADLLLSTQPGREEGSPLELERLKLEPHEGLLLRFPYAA

- IC50: 29 nM
SMILES: Nc1cc(COc2c(Cl)cc(C[C@H](N)C(=O)O)cc2Cl)c2oc(-c3ccccc3)nc2c1 [JPH203]
